Measured values as given in patent publication US20260183306A1, “Methods for Treating Respiratory Diseases Characterized by Mucus Hypersecretion” (The Board of Trustees of the Leland Stanford Junior …, priority 2022, published 2026).
Where two headings read alike, the source gives them in different places.

Experiments:
[1] = test system: primary cystic fibrosis airway epithelial cells; settings: treatment during differentiation, homemade medium; previously shown (ref 24); cited from earlier work
[2] = test system: primary human nasal epithelial cells (HNECs); settings: known / previously demonstrated (refs 23, 24), healthy, CF and CRS cultures, cited from earlier work
[3] = test system: healthy and CF primary human airway epithelial cultures; test: SEM of cilia structure in healthy and CF primary human airway epithelial cultures; assay type: cell-based
Description: Wholemount immunofluorescence and scanning electron microscopy of HNEC cultures. For wholemount immunofluorescence, HBECs were fixed in −20° C. methanol or 4% paraformaldehyde for 10 min as previously described (43). Transwell filters were cut out of the plastic supports and placed in a humidity chamber for staining. Samples were blocked in 10% normal horse serum and 0.1% Triton X-100 in PBS and incubated with primary antibodies for 1-2 h, then with Alexa dye conjugated secondary antibodies (Thermo Fisher) for 30 min at room temperature. Filters were mounted in Mowiol mounting medium containing 2% N-propyl gallate (Sigma). Samples were imaged with a Leica SP8 confocal microscope. For antibodies and fixation conditions, see Table 2. For SEM, Transwell filters were fixed in 2% glutaraldehyde, 4% paraformaldehyde in 0.1 M NaCacodylate buffer, pH 7.4 at 4° C. overnight. Samples were osmicated, dehydrated, dried with a Tousimis Autosamdri-815 critical point dryer. Samples were mounted luminal side up, sputter coated with 100 Å layer of Au/Pd. Images were acquired with a Hitachi S-3400N VP-SEM microscope operated at 10−15 kV, with a working distance of 7−10 mm and using secondary electron detection.

[4] = test system: primary nasal epithelial cells from two CF donors (F508del homozygotes); test: Ciliary beat frequency (CBF) in CF nasal epithelial cultures, MK-0752 and Elexacaftor; assay type: cell-based, human
Description: Primary nasal epithelial cells from two CF donors (F508del homozygotes) were grown in filter inserts as in previous experiments to full differentiation. We evaluated whether lower doses of both MK-0752 and Elexacftor than doses used in the previous experiments could elicit a positive response in CBF as evidence for synergy between the two drugs. During differentiation, cultures received treatment with vehicle control or the GSI MK-0752 at 125 nM, or triple combination modulator combination with Elexacaftor at 100 nM, or both treatments combined. Once cells reached maturity, the apical surface was washed gently with PBS and then placed on an inverted microscope on a heated stage at 37° C. High speed video recording at 200× of the ciliated surface was performed to estimate the CBF in several regions. Average CBF in Hz for each condition are represented by the bars in FIG. 30.

[5] = test system: primary nasal epithelial cells from two CF donors (F508del homozygote); test: Airway surface liquid (ASL) reabsorption in CF HNEC cultures; assay type: cell-based, human; settings: p<0.001 vs control
Description: Primary nasal epithelial cells from two CF donors (F508del homozygote) were grown in filter inserts as in previous experiments to full differentiation. During differentiation they received treatment with vehicle control (blue), triple combination CFTR modulator (Elexcaftor/Tezacaftor/Ivacaftor; orange), the GSI semagacestat (LY-45139) (gray) or both treatments combined (yellow). Once they reached maturity, the apical surface was washed gently with PBS and then 30 μl of PBS were added to the surface. The filter inserts were then weighed on a precision scale at times 0, 12 and 24 hours after fluid addition. The change in weight over time was taken as a surrogate for fluid reabsorption.

Alzheimer's mouse models = settings: 30 mg/kg daily for five months or 100 mg/kg daily for 12 days; cited from earlier work
[6] = Body weight and tolerability in GSI treated mice (surrogate of GI toxicity); assay type: in vivo
Description: In the second experiment, vehicle and semagacestat were administered once daily for 5 consecutive days per week for three weeks, with a semagacestat dose of 1 mg/kg. […] As a surrogate measure of GI toxicity, we monitored body weight throughout the experiment. Body weight was measured on Days 1, 9, 24 and 30, and mice were sacrificed on day 31.
Mouse husbandry and GSI treatment in mice. […] 10-40 week age-matched male and female Foxj1/EGFP mice were treated with LY450139 or vehicle control by intraperitoneal (IF) administration. In the first experiment, 0.1 mg/kg, or 1 mg/kg LY450139, 10 mg/kg DAPT or saline vehicle was administered twice daily for three consecutive days, then the mice were sacrificed on day 7. In the second experiment, 1 mg/kg LY450139 or saline vehicle was administered once daily for five consecutive days per week for three weeks, then the mice were sacrificed on day 30. Body weight was monitored as a surrogate measure of GI toxicity.

[7] = upon oral administration; cited from earlier work

C[C@H](NC(=O)Cc1cc(F)cc(F)c1)C(=O)NC(C(=O)OC(C)(C)C)c1ccccc1 (stereo partly drawn) [DAPT]
multiciliated cell proportion in CF cultures [1]: increases the multiciliated cell proportion in CF cultures to that of healthy HNECs | multiciliated cell numbers in primary airway epithelial cell cultures [2]: increase the proportion of multiciliated cells | multiciliated cell numbers in primary airway epithelial cell cultures ([2]; listed as DAFT): increases multiciliated cell numbers | structure of multiciliated cells / cilia [3]: indistinguishable from those in untreated healthy cultures

O=C(O)CC[C@H]1CC[C@@](c2cc(F)ccc2F)(S(=O)(=O)c2ccc(Cl)cc2)CC1 [MK-0752]
increase in CBF expected by the simple addition of the independent effects ([4]; MK-0752 125 nM plus triple combination with Elexacaftor 100 nM): 28% | increase in CBF by the combined treatments versus either drug alone ([4]; MK-0752 125 nM plus triple combination with Elexacaftor 100 nM, p<0.005): larger than with either drug alone | increase in CBF by the combined treatments ([4]; MK-0752 125 nM plus triple combination with Elexacaftor 100 nM, p=0.049 vs expected): 36% | ciliary beat frequency (CBF) versus control ([4]; MK-0752 at 125 nM during differentiation, p<0.001 vs control): significant effect in increasing the CBF

CC(C)[C@H](O)C(=O)N[C@@H](C)C(=O)N[C@@H]1C(=O)N(C)CCc2ccccc21 [semagacestat, (2S)-2-hydroxy-3-methyl-N-[(1 S)-1-methyl-2-oxo-2-[[(1 S)-2,3,4,5-tetrahydro-3-methyl-2-oxo-1H-3-benzazepin-1-yl]amino]ethyl]-butamide]
ASL fluid reabsorption versus control ([5]; Elexcaftor/Tezacaftor/Ivacaftor and semagacestat combined): significantly decreased reabsorption | ASL fluid reabsorption versus control ([5]; single treatment during differentiation, 30 μl PBS, weight change): significantly decreased reabsorption | efficacy in Alzheimer's mouse models (Alzheimer's mouse models): demonstrated efficacy | body weight versus vehicle controls ([6]; 1 mg/kg IP once daily 5 days per week for three weeks, days 9, 24 and 30): no significant difference | mortality, ill effects, adverse events, tolerability ([6]; 1 mg/kg IP once daily 5 days per week for three weeks, listed as LY450139): well tolerated | apparent toxicity ([6]; 1 mg/kg administered for three days): without any apparent toxicity | half-life [7]: approximately 2.5 hours
